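Method: 48-hour compound exposure of cells in 96-well plates, five concentrations, linear interpolation of endpoints. At the GI50, growth is halved.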 The source made the active and inactive calls. Cut-off read from the data, not from the text of the source: active = GI50 up to about 1.1 µM and inactive = higher.
Columns and labels:
Assay in all cases: growth of human tumour cells (NCI), 48 h
SN12C = test system: SN12C
SR = test system: SR
BT-549 = test system: BT-549
MCF7 = test system: MCF7
HCT-15 = test system: HCT-15
HCC 2998 = test system: HCC 2998
TK-10 = test system: TK-10
NCI-H23 = test system: NCI-H23
CCRF-CEM = test system: CCRF-CEM
MDA-MB-231 = test system: MDA-MB-231
UACC-257 = test system: UACC-257
MOLT-4 = test system: MOLT-4
SK-MEL-5 = test system: SK-MEL-5
KM12 = test system: KM12
HT-29 = test system: HT-29
SF-295 = test system: SF-295
MDA-N = test system: MDA-N
U-251 = test system: U-251
A498 = test system: A498
HCT-116 = test system: HCT-116

Row | SMILES | GI50 (SN12C) | GI50 (SR) | GI50 (BT-549) | GI50 (MCF7) | GI50 (HCT-15) [µM] | GI50 (HCC 2998) | GI50 (TK-10) | GI50 (NCI-H23) | GI50 (CCRF-CEM) | GI50 (MDA-MB-231) | GI50 (UACC-257) | GI50 (MOLT-4) | GI50 (SK-MEL-5) | GI50 (KM12) | GI50 (HT-29) | GI50 (SF-295) | GI50 (MDA-N) | GI50 (U-251) | GI50 (A498) | GI50 (HCT-116)
1 | CCOC(=O)C1NCCc2c1[nH]c1ccccc21 (stereo not given) | > 10 µM (inactive) | > 10 µM (inactive) | > 10 µM (inactive) | > 10 µM (inactive) | > 10 | > 10 µM (inactive) | > 10 µM (inactive) | > 10 µM (inactive) | > 10 µM (inactive) | > 10 µM (inactive) | > 10 µM (inactive) | > 10 µM (inactive) | > 10 µM (inactive) | > 10 µM (inactive) | > 10 µM (inactive) | > 10 µM (inactive) | > 10 µM (inactive) |  |  | 
2 | CCOC(=O)C1(C#N)OC(=O)c2cnccc21 (stereo not given) | > 100 µM (inactive) | > 100 µM (inactive) | > 100 µM (inactive) | > 100 µM (inactive) | > 100 | > 100 µM (inactive) |  | > 100 µM (inactive) | > 100 µM (inactive) | > 100 µM (inactive) | > 100 µM (inactive) | > 100 µM (inactive) |  | > 100 µM (inactive) | > 100 µM (inactive) | > 100 µM (inactive) | > 100 µM (inactive) | > 100 µM (inactive) | > 100 µM (inactive) | > 100 µM (inactive)
3 | S=C(Nc1ccc2c(c1)oc1ccccc12)c1cccnc1 | > 100 µM (inactive) | > 100 µM (inactive) | 37.1 µM (inactive) | 40.9 µM (inactive) | > 100 | > 100 µM (inactive) | 30.5 µM (inactive) | 24.5 µM (inactive) | > 100 µM (inactive) | > 100 µM (inactive) |  | > 100 µM (inactive) | 70.8 µM (inactive) | > 100 µM (inactive) | > 100 µM (inactive) | 29.9 µM (inactive) | > 100 µM (inactive) | 21.6 µM (inactive) |  | 85.7 µM (inactive)
4 | CN(C)c1ccc(/C=C2\C[C@H]3[C@@H]4CC=C5C[C@@H](O)CC[C@]5(C)[C@H]4CC[C@]3(C)C2=O)cc1 | 20.9 µM (inactive) | 29.1 µM (inactive) | 53.5 µM (inactive) | 30.5 µM (inactive) | 34.5 |  | 20.3 µM (inactive) | 25.6 µM (inactive) |  | 18 µM (inactive) | 19.9 µM (inactive) | 79.3 µM (inactive) | 50.7 µM (inactive) | 38.5 µM (inactive) | 16.3 µM (inactive) | 25.6 µM (inactive) | 32.4 µM (inactive) | 12.9 µM (inactive) | 20.9 µM (inactive) | 29.2 µM (inactive)
5 | O[C@H]1[C@@H]2OC[C@@H](O)[C@H](OCc3ccccc3)[C@@](COCc3ccccc3)(O2)[C@@H]1OCc1ccccc1 | 14.7 µM (inactive) | 38.5 µM (inactive) | 17.7 µM (inactive) | 19.3 µM (inactive) | 16.4 |  | 17.2 µM (inactive) | 17.1 µM (inactive) | 17.4 µM (inactive) | 17 µM (inactive) | 14.8 µM (inactive) | 30.7 µM (inactive) |  | 17.2 µM (inactive) | 15.2 µM (inactive) | 12.6 µM (inactive) | 15.4 µM (inactive) | 16 µM (inactive) | 17.5 µM (inactive) | 20.1 µM (inactive)
6 | Cc1cn(CCOCCOC(=O)NC(CCCNC(N)=O)C(=O)O)c(=O)[nH]c1=O (stereo not given) | > 100 µM (inactive) | > 100 µM (inactive) | > 100 µM (inactive) | > 100 µM (inactive) | > 100 | > 100 µM (inactive) | > 100 µM (inactive) | > 100 µM (inactive) | > 100 µM (inactive) | > 100 µM (inactive) | > 100 µM (inactive) | > 100 µM (inactive) |  | > 100 µM (inactive) | > 100 µM (inactive) | > 100 µM (inactive) | > 100 µM (inactive) | > 100 µM (inactive) |  | > 100 µM (inactive)
7 | C=CCC1=CC2(OC)C(=O)C(OC)(OC)C1C1C(OC)(OC)C(=O)C(OC)=CC12CC=C (stereo not given) | > 100 µM (inactive) |  | 49.9 µM (inactive) | > 100 µM (inactive) | > 100 | > 100 µM (inactive) | > 100 µM (inactive) | > 100 µM (inactive) | > 100 µM (inactive) | > 100 µM (inactive) | > 100 µM (inactive) | > 100 µM (inactive) | > 100 µM (inactive) | > 100 µM (inactive) | > 100 µM (inactive) | > 100 µM (inactive) | > 100 µM (inactive) | > 100 µM (inactive) | > 100 µM (inactive) | > 100 µM (inactive)
8 | CC1=NN(c2ccc(S(=O)(=O)O)cc2)C(=O)/C1=C/c1ccc(Cl)cc1.c1ccncc1 | > 100 µM (inactive) | > 100 µM (inactive) | > 100 µM (inactive) | > 100 µM (inactive) | > 100 |  | > 100 µM (inactive) | > 100 µM (inactive) | > 100 µM (inactive) | > 100 µM (inactive) | > 100 µM (inactive) | > 100 µM (inactive) | > 100 µM (inactive) | > 100 µM (inactive) | > 100 µM (inactive) | > 100 µM (inactive) | > 100 µM (inactive) | > 100 µM (inactive) | > 100 µM (inactive) | > 100 µM (inactive)

Reference: ChEMBL document CHEMBL1201862, “PubChem BioAssay data set” (2004)
